Read-outs that look alike come from different tables or passages of the source. Marks after values point to notes of the source that are not given here.
What was measured:
wild-type S. aureus = test: Growth inhibition of bacterial cell cultures; assay type: cell-based; settings: Staphylococcus aureus, read-out: IC50 (inhibit the growth by half)
Protocol: (§1) S. aureus or E. coli cells (400 μl of a 0.700 OD560 preculture) containing wild-type or mutant ribosomes were added in 3.6 ml of LB (Luria Broth) medium and grown at 37°C in the presence or absence of CAM or PA–CAM conjugates until the optical density of the control culture (grown in the absence of drug) reached the value 0.700 at 560 nm. From the growth curves, the IC50 value for each strain was estimated as the concentration of the drug that is required to inhibit the growth by half.

wild-type E. coli = test: Growth inhibition of bacterial cell cultures; assay type: cell-based; settings: for IC50: Escherichia coli, read-out: IC50 (inhibit the growth by half); for IC50/IC50(puro): wild-type E. coli, IC50(puro) = concentration causing 50% inhibition in peptide-bond formation at 2 mM puromycin
Protocol: as §1

[1] = tested on: E. coli (A2058G) TA531 cells with pKK35 plasmid, mutated 23S rRNA; test: Growth inhibition of bacterial cell cultures, CAM-resistant mutant; assay type: cell-based; settings: Escherichia coli, read-out: IC50 (inhibit the growth by half)
From the text: (§2) CAM free base [D-(-)threo-1-(p-nitrophenyl)-2-amino-1,3-propanediol], puromycin dihydrochloride, tRNA^Phe from E. coli, dimethyl sulfate (DMS), DMS stop solution and tRNA^Phe from E. coli were purchased from Sigma-Aldrich. Kethoxal and 1-cyclohexyl-3-(2-morpholinoethyl)-carbodiimide metho-p-toluene sulfate (CMCT) were from MP Biomedicals and Fluka Biochemicals, respectively. AMV reverse transcriptase was supplied by Roche, dNTPs by HT Biotechnology, and ddNTPs by Jena Bioscience. L-[2,3,4,5,6 -^3H]Phenylalanine was from Amersham Biosciences and [α-^32P]ATP from Izotop. Cellulose nitrate filters (type HA; 0.45 μm pore size) were from Millipore Corp. Details in experimental procedures of synthesis and physical and spectra data for the synthesized compounds will be published elsewhere. […] The mesothelioma cell line ZL34 and its immortalized counterpart cell line Met5A, were kindly provided by Prof. G. Stathopoulos (University of Patras).
as §1

[2] = tested on: E. coli (A2503C) TA531 cells with pKK35 plasmid, mutated 23S rRNA; test: as above; assay type: cell-based; settings: Escherichia coli, read-out: IC50 (inhibit the growth by half)
From the text: as §2, §1

[3] = tested on: complex C (poly(U)-programmed ribosomes from E. coli bearing Ac[3H]Phe-tRNA at the P-site), peptidyl transferase; test: Inhibition of AcPhe-puromycin synthesis (puromycin reaction, peptide bond formation); assay type: biochemical; settings: for Ki: 25°C, buffer A; for koff: isomerization C*I to CI, non linear regression fitting; for potency relative to CAM, based on Kik7/(k6 + k7): overall two-step inhibition of the puromycin reaction
Protocol: Isolation of 70S ribosomes from E. coli K12 cells and preparation of Ac[^3H]Phe-tRNA^Phe charged to 80% were performed, as described previously ([23]). The post-translocation complex of poly(U)-programmed ribosomes (complex C), bearing tRNA^Phe at the E-site and Ac[^3H]Phe-tRNA at the P-site was prepared in buffer A (100 mM Tris-HCl pH 7.2, 6 mM (CH3COO)2Mg, 100 mM NH4Cl and 6 mM 2-mercaptoethanol). The percentage of active ribosomes in AcPhe-tRNA binding was 72%. This ribosomal population was more than 90% reactive toward puromycin.
The reaction between complex C and excess puromycin (S), a pseudo-substrate which binds to the ribosomal A-site, was performed at 25°C in buffer A and analyzed as described in detail elsewhere ([11]). Briefly, since the reaction followed first-order kinetics, the first-order rate constant kobs at each concentration of puromycin was determined by fitting the corrected x-values into Equation ([1]), (1) where x is the product Ac[^3H]Phe-puromycin expressed as the percentage of complex C radioactivity added in the reaction mixture and t the time of the reaction. kobs is related to the puromycin concentration, [S], by the relationship, (2) where kcat is the catalytic rate constant of PTase and KS the affinity constant of puromycin for complex C.
In the presence of CAM–polyamine conjugates, biphasic logarithmic time plots were obtained. The slope of the straight line through the origin was taken as the value of the apparent rate constant, kobs(early), at the early phase of the reaction, while the slope of the second straight line was taken as the value of the rate constant, kobs(late), at the late phase of the reaction.

[4] = tested on: central loop of Domain V of 23S rRNA, E. coli ribosomes; test: Time-resolved footprinting of PA–CAM conjugates bound to ribosomes (DMS, kethoxal, CMCT probing, primer extension); assay type: binding
Protocol: Complexes RI and R*I were then probed at 37°C for 10 min with DMS, kethoxal or CMCT, as described previously ([30]). The modified sites in 23S rRNA were then analyzed by primer extension with reverse transcriptase, according to Moazed et al. ([30]). […] Extension products were run on 6% polyacrylamide/7M urea gels. Identification of the modified nucleotides, quantitative scanning of the gels and normalization of the band intensities were made as previously described ([4]). The values indicated in Table 2 denote the ratio between the normalized intensity of a band of interest and the normalized intensity of the corresponding band in the control lane (ribosomes non-treated with drugs).

[5] = early phase of the reaction (encounter complex CI)
[6] = late phase of the reaction (complex C*I)
[7] = R*I binding state (3 min), conjugate at 50 × Ki, 25°C, ratio to control lane R
[8] = RI binding state (2 s), conjugate at 50 × Ki, 25°C, ratio to control lane R

NCCCCNC(=O)CCC(=O)N[C@H](CO)[C@H](O)c1ccc([N+](=O)[O-])cc1 [Compound 1]
IC50 (wild-type S. aureus): > 200 µM | IC50 (wild-type E. coli): > 200 µM | IC50/IC50(puro) (wild-type E. coli): >37.0 | IC50 [1]: > 200 µM | IC50 [2]: > 200 µM | Ki [3, 5]: 3.37 ± 0.3 µM | koff [3]: 0.0175 ± 0.00167 s⁻¹ | Ki [3, 6]: 0.9 ± 0.06 µM | potency relative to CAM, based on Kik7/(k6 + k7) [3]: equal

NCCCNCCCCNCCCNC(=O)CCC(=O)N[C@H](CO)[C@H](O)c1ccc([N+](=O)[O-])cc1 [Compound 2]
IC50 (wild-type S. aureus): 45.3 ± 5.5 µM | IC50 (wild-type E. coli): > 100 µM | IC50/IC50(puro) (wild-type E. coli): >22.2 | IC50 [1]: > 100 µM | IC50 [2]: > 100 µM | Ki [3, 5]: 2.2 ± 0.2 µM | koff [3]: 0.0198 ± 0.00267 s⁻¹ | Ki [3, 6]: 0.75 ± 0.06 µM | potency relative to CAM, based on Kik7/(k6 + k7) [3]: equal

NCCCCN(CCCN)C(=O)CCC(=O)N[C@H](CO)[C@H](O)c1ccc([N+](=O)[O-])cc1 [Compound 3]
IC50 (wild-type S. aureus): 12.7 ± 1 µM | IC50 (wild-type E. coli): > 150 µM | IC50/IC50(puro) (wild-type E. coli): >20.8 | IC50 [1]: > 150 µM | IC50 [2]: > 150 µM | Ki [3, 5]: 3.6 ± 0.3 µM | koff [3]: 0.021 ± 0.00217 s⁻¹ | Ki [3, 6]: 1.2 ± 0.1 µM | potency relative to CAM, based on Kik7/(k6 + k7) [3]: lower potency | protection of U2585 against CMCT (footprinting) ([4]; 2 s or 3 min incubation, Supplementary Figure S6): fails to detect a similar protection

O=C(CCC(=O)N[C@H](CO)[C@H](O)c1ccc([N+](=O)[O-])cc1)NCCCNCCCCN(Cc1ccccc1)Cc1ccccc1 [Compound 5]
IC50 (wild-type S. aureus): 13.7 ± 1.2 µM | IC50 (wild-type E. coli; WT-E. coli, LB medium, 37°C): 35.5 ± 3.6 µM | IC50/IC50(puro) (wild-type E. coli): 9.86 ± 1.29 | IC50 [1]: 32.3 ± 3 µM | IC50 [2]: 37.1 ± 3.1 µM | Ki [3, 5]: 2.1 ± 0.17 µM | koff [3]: 0.0148 ± 0.0013 s⁻¹ | Ki [3, 6]: 0.6 ± 0.05 µM | potency relative to CAM, based on Kik7/(k6 + k7) [3]: 1.5 fold | Relative reactivity of nucleoside A2058 [4, 7]: 0.95 ± 0.08 | Relative reactivity of nucleoside A2059 [4, 7]: 1.00 ± 0.08 | Relative reactivity of nucleoside A2062 [4, 7]: 1.00 ± 0.09 | Relative reactivity of nucleoside A2451 [4, 7]: 0.70 ± 0.05^b | Relative reactivity of nucleoside A2602 [4, 7]: 0.89 ± 0.07 | Relative reactivity of nucleoside G2505 [4, 7]: 0.50 ± 0.15^b,c | Relative reactivity of nucleoside U2506 [4, 7]: 0.70 ± 0.06^b | Relative reactivity of nucleoside U2609 [4, 7]: 0.90 ± 0.08 | Relative reactivity of nucleoside A2058 [4, 8]: 1.10 ± 0.09 | Relative reactivity of nucleoside A2059 [4, 8]: 0.90 ± 0.08 | Relative reactivity of nucleoside A2062 [4, 8]: 1.00 ± 0.06 | Relative reactivity of nucleoside A2451 [4, 8]: 0.65 ± 0.04^b | Relative reactivity of nucleoside A2602 [4, 8]: 1.00 ± 0.06 | Relative reactivity of nucleoside G2505 [4, 8]: 0.74 ± 0.06^b | Relative reactivity of nucleoside U2506 [4, 8]: 0.75 ± 0.05^b | Relative reactivity of nucleoside U2585 [4, 8]: 0.92 ± 0.10 | Relative reactivity of nucleoside U2609 [4, 8]: 1.00 ± 0.10

NCCCCNC(=O)c1ccccc1C(=O)N[C@H](CO)[C@H](O)c1ccc([N+](=O)[O-])cc1 [Compound 6]
IC50 (wild-type S. aureus): > 200 µM | IC50 (wild-type E. coli): > 200 µM | IC50 [1]: > 200 µM | IC50 [2]: > 200 µM | Ki [3, 5]: 214 ± 17.1 µM | koff [3]: 0.0125 ± 0.001 s⁻¹ | Ki [3, 6]: 8.45 ± 0.67 µM | potency relative to CAM, based on Kik7/(k6 + k7) [3]: lower potency

O=C(N[C@H](CO)[C@H](O)c1ccc([N+](=O)[O-])cc1)c1nc[nH]n1 [Compound 8]
IC50 (wild-type S. aureus): > 100 µM | IC50 (wild-type E. coli): > 300 µM | IC50/IC50(puro) (wild-type E. coli): >50 | IC50 [1]: > 300 µM | IC50 [2]: > 300 µM | Ki [3, 5]: 3 ± 0.3 µM | koff [3]: 0.0183 ± 0.002 s⁻¹ | Ki [3, 6]: 1 ± 0.1 µM | potency relative to CAM, based on Kik7/(k6 + k7) [3]: equal

O=C(CCNC(=O)c1nc[nH]n1)N[C@H](CO)[C@H](O)c1ccc([N+](=O)[O-])cc1 [Compound 9]
IC50 (wild-type S. aureus): 66 ± 4.6 µM | IC50 (wild-type E. coli): > 200 µM | IC50/IC50(puro) (wild-type E. coli): >8.3 | IC50 [1]: > 200 µM | IC50 [2]: > 200 µM | Ki [3, 5]: 12 ± 1.08 µM | koff [3]: 0.014 ± 0.0013 s⁻¹ | Ki [3, 6]: 4 ± 0.44 µM | potency relative to CAM, based on Kik7/(k6 + k7) [3]: lower potency

— PMC4117768, “Conjugation with polyamines enhances the antibacterial and anticancer activity of chloramphenicol” (Nucleic Acids Research, 2014)
